Earlier results on 1 compound are cited in EP3372227A1, “TABLET FORMULATION OF ADEFOVIR DIPIVOXIL” (MH10 Spolka z ograniczona odpowiedzialnoscia, priority 2017, dated 2018).

SMILES strings stand for the structures.

The conditions of the data set: rat, in vivo.

As to `Nc1ncnc2c1ncn2CCOCP(=O)(O)O` [adefovir], the relative oral bioavailability was 7.8.
